Experimental findings from patent US5792444A, “Labeled chemotactic peptides to image focal sites of infection or inflammation” (The General Hospital Corporation, priority 1993, dated 1998) are described below.

One data set deals with sterile inflammation. Further details: species or system Rhesus monkeys. Particulars: rhesus monkey, in vivo. The procedure:
Two adult female Rhesus monkeys weighing approximately 10 kg were used in the imaging experiments. Since these animals had been used previously in imaging experiments with other radiopharmaceuticals, they had received numerous intramuscular injections in the right posterior thigh during the induction of anesthesia.
Under light ketamine anesthesia (5.5 mg/kg), the animals were injected intravenously through a leg vein with approximately 0.5 mCi ^99m -Tc-labeled peptide (<2.0 ng/kg). At 5 min, 30 min, 1 hr, and 19 hrs following injection of radiolabeled peptide, the animals were anesthetized with ketamine/xylazine (15.0 and 1.5 mg/kg) and whole body scintigrams were acquired using a large field of view gamma camera equipped with a parallel hole high resolution low energy collimator interfaced to a dedicated computer system (Technicare Gemini 700, Technicare 560, Solon, Ohio). […] At 5 minutes prior to injection and 1, 3, 5, and 15 minutes after injection 0.5 mL samples of blood were collected and the CBC was measured.
Regions of interest were drawn over: the whole animal, cardiac blood pool, lung, liver, spleen, kidney, intestine, bone, normal muscle, and inflamed muscle; and count densities (CPM/pixel) were calculated. The results were expressed as tissue-to-blood pool, % injected dose/gram (%ID/g) and target to background ratios (inflamed thigh/contralateral thigh).

The subject of a further data set is rabbit neutrophils. The experiment in a line: Lysozyme release in rabbit neutrophils. The data set is classed as cell-based. How it is done: The peptide that was prepared and tested was formyl-Met-Acc^6 -Phe--OH.
Data set [1] addresses T1, chemoattractant receptor on human PMN's (Homo sapiens, UniProt P21462).
T1 construct: endogenous in cells; host or cells: isolated human PMN's (neutrophils) from healthy volunteers, intact cells
T1 sequence (P21462 1-350): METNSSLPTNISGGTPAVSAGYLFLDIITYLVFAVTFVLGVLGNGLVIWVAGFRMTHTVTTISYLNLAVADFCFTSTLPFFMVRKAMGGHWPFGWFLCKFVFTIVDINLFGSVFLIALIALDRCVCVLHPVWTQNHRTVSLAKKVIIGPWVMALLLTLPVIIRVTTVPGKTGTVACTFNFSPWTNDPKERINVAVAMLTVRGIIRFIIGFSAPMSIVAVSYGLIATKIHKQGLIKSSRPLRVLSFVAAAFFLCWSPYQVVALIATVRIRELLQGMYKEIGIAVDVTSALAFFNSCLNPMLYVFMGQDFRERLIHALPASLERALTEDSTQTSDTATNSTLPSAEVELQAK
Put plainly: For-MLF receptor binding assay (For-ML[3H]F displacement). Particulars: 15 nM For-ML[3H]F, 45 min, 24° C. The procedure:
Following incubation, the cells were filtered onto glass fiber discs (Whatman GF/C; Whatman, Inc., Clifton, N.J.) which were then washed with 20 mL of ice cold incubation buffer. The filters were placed in scintillation vials with 10 mL of Safety-Solve (Research Products International Corp., Mt. Prospect, Ill.) and radioactivity was measured by liquid scintillation spectroscopy. Specific binding is defined as total binding minus nonspecific binding. Nonspecific binding is the amount of residual bound radioactivity in the presence of 10 μM unlabeled For-MLF.
(§1) The chemical purity of the final product was evaluated by TLC, HPLC, UV spectroscopy, mass spectroscopy, and amino acid analysis. Determinations of the EC50 's for binding to the chemoattractant receptor on human PMN's and superoxide generation were performed as described in Pike, M. C., and Snyderman, R., Methods Enzymol. 162:236-245 (1988); Pike, M. C., et al., Blood 67:909-913 (1986); and Fischman, A. J., et al., J. Nucl. Med. 32:483-491 (1991).

A short description of data set [2]: Example 1: biological activity (EC50) of peptide and DTPA derivative. From the text:
The chemotactic peptide N-formyl-Nle-Leu-Phe-Nle-Tyr-Lys was synthesized using standard solid phase methods well-known in the art (Merrifield, R. B., J. Am. Chem. Soc. […]:2149-2154 (1963); Stewart, J. M., and Young, J. D., Solid Phase Peptide Synthesis, W. H. Freeman & Company, San Francisco, Calif. (1969)). The epsilon amino group of the C-terminal lysine was modified with DTPA using a cyclic anhydride. […] The peptide was readily radiolabeled with ^111 In.

The next data set has as its system E. coli infection. Also noted: species or system New Zealand white rabbits. Particulars: rabbit, in vivo. The procedure:
In order to determine the feasibility of using radiolabeled chemotactic peptides for infection localization in animals that are sensitive to the neutropenic effects of these agents, imaging studies were performed in rabbits with focal E. coli infections. High specific activity ^99m Tc-labeled chemotactic peptide was used in these studies. Six male New Zealand white rabbits weighing 2-3 kg were anesthetized with ketamine and xylazine (15.0 and 1.5 mg/kg) and injected in the left posterior thigh muscle with a 1.0 mL suspension of approximately 2×10^9 E. coli. […] Images were recorded for a preset time of 5 minutes/view with a 15% window centered to include the 140 KeV photopeak of ^99m Tc. […]
After acquiring the final images, the animals were sacrificed by pentobarbital overdose and samples of blood, heart, lung, liver, spleen, kidney, stomach, intestine, testes, bone, marrow, normal skeletal muscle, infected skeletal muscle, and pus were weighed and radioactivity was measured as described above. To correct for radioactive decay, aliquots of the injected doses were counted simultaneously. The results were expressed as percent injected dose per gram. […] The cells were washed with 0.9% NaCl and the residual radioactivity in the cells and supernatant measured. […]

A further data set has as its system human neutrophils. The experiment in a line: Assay of superoxide production (ferricytochrome C reduction). The data set is classed as cell-based. The settings on record: 0.1 μM. The procedure:
as §1

Data set [3] has as its target T2, neutrophils (Homo sapiens, UniProt P21462).
T2 sequence (P21462 1-350): T1 sequence (P21462 1-350)
The experiment in a line: Binding (Table I, Cell Biology Data). An excerpt: Three non-DTPA derivatized peptides were included in the assay for comparison.

Data set [4] deals with T2, neutrophils. Put plainly: Free radicals agonist (neutrophil free radical chemiluminescence). It counts as cell-based. Particulars: class symbol.
In data set [5] the target is T2, neutrophils. Put plainly: Free radicals antagonist (inhibition of ForMLF stimulated free radical chemiluminescence). It counts as cell-based.
For data set [6], the target named is T2, neutrophils. The experiment in a line: MPO (myeloperoxidase assay) release. The settings on record: pH5. The data set is classed as cell-based. How it is done: (§2) The procedure of Example 5 was repeated for additional CP's within the scope of the present invention. The results are shown in Table I. In the table, MPO is myeloperoxidase assay, a "-" sign means there was no effect at 30 μM, a "+" sign means there was a positive effect at 30 μM, and "N.T." means "Not

The test system of data set [7] is neutrophils / human umbilical vein endothelial cells. Put plainly: Adhesion agonist (neutrophil-endothelial cell adhesion assay). The data set is classed as cell-based. The settings on record: class symbol; read-out: Adhesion Agonist EC50. The procedure: (§3) The unconjugated peptide iBoc-MLFK was evaluated in a neutrophil-endothelial cell adhesion assay. In this assay, neutrophils (5×10^5) labeled with 5-carboxyfluorescein diacetate were added into wells of a 48 well dish containing confluent human umbilical vein endothelial cells. The iBoc-MLFK peptide was added at a concentration of 10 μM 10 min prior to stimulation of neutrophils with 30 nM ForMLF. Percent adhesion was determined by washing off unattached neutrophils after an incubation period of 25 minutes. This peptide inhibited adhesion by 66% at this concentration. Subsequently, concentrations between 0.1-3.0 μM were examined. […] Inhibition of adhesion would reduce the infiltration of leukocytes, such as neutrophils, to a diseased site, thereby limiting the tissue damage associated with inflammation.
as §2

Data set [8] has the same test system. The experiment in a line: cells. The data set is classed as cell-based. The settings on record: read-out: Adhesion Antagonist IC50. How it is done:
as §3, §2

Data set [9] addresses T2, neutrophils. The experiment in a line: Chemoattraction of human neutrophils. It counts as cell-based. How it is done:
(§4) In another preferred embodiment of the present invention, Y is 4-aminotetrahydropyran-4-carboxylic acid (Thp). […] The peptide that was prepared and tested was formyl-Thp-Leu-Phe-OMe.
The peptide that was prepared and tested was formyl-Met-Dpg-Phe--OH

The target in data set [10] is T2, neutrophils. Put plainly: Superoxide production by human neutrophils (backbone analog). The data set is classed as cell-based. The procedure: as §4

Where a SMILES comes first, the peptide text is derived from it. [ ]: non-standard residue; d: D form. The star is where a group is joined. HYNIC = NNc1ccc(C(=O)*)cn1; Ac6c = NC1(C(=O)O)CCCCC1; Nle = CCCC[C@H](N)C(=O)O; For = O=C* Some results are limits rather than exact numbers.

On to `CSCC[C@H](NC=O)C(=O)N[C@@H](CC(C)C)C(=O)N[C@@H](Cc1ccccc1)C(=O)NCCCCCCNC(=O)c1ccc(NN)nc1` [HP3, For-MLFNH(CH2)6 NH-HYNIC], for which, in the data set with sterile inflammation, the “effects on WBC level” value is reported as “no significant effects”.
Regarding `CSCC[C@H](NC=O)C(=O)NC1(C(=O)N[C@@H](Cc2ccccc2)C(=O)O)CCCCC1` [formyl-Met-Acc^6 -Phe--OH] (For-Met-[Ac6c]-Phe-OH), in the data set with rabbit neutrophils, the lysozyme release entry was “potent inducer of lysozyme release”.
Usually EC50 stands for the concentration that produces a half-maximal response. As for `CCCC[C@H](NC=O)C(=O)N[C@@H](CC(C)C)C(=O)N[C@@H](Cc1ccccc1)C(=O)N[C@@H](CCCC)C(=O)N[C@@H](Cc1ccc(O)cc1)C(=O)N[C@@H](CCCCN)C(=O)O` [For-NleLFNleYK, N-formyl-norleucyl-leucyl-phenylalanyl-norleucyl-tyrosyl-lysine] (For-[Nle]LF[Nle]YK-OH), the EC50 is 1 nM in data set [1] and approximately 1 nM in data set [2].
Regarding `CSCC[C@H](NC=O)C(=O)N[C@@H](CC(C)C)C(=O)N[C@@H](Cc1ccccc1)C(=O)N[C@H](CCCCNC(=O)c1ccc(NN)nc1)C(N)=O` [Example 99mTc-HP4, metal not drawn] (For-MLF[dK](HYNIC)-NH2), in the data set on E. coli infection, the “percent residual circulating radioactivity that was cell associated” value is on record as “approximately 25%” and the “radioactivity of pus associated with WBC's” value was “approximately 90%”.
With `CCCCCCCCCCCCCC(=O)O[C@@H]1[C@@H](C)[C@@]2(O)[C@@H](C=C(CO)C[C@]3(O)C(=O)C(C)=C[C@@H]23)[C@@H]2C(C)(C)[C@]12OC(C)=O` [PMA, phorbol myristate acetate], the “maximal response of superoxide production” value with human neutrophils is listed as 22.9 nmol 02^- produced/10^6 cells/10 min.
As usually defined, the IC50 is the midpoint of a concentration-inhibition curve. As for iBoc--MLF--O--SPNH [Example 38], the EC50 is 150 to 5000 nM on neutrophils [3], more than 30000 nM at neutrophils [4], 400 nM on neutrophils [6] and less than 30000 nM in [7]. The IC50 was 5000 to 6000 nM on neutrophils [5] and more than 30000 nM in data set [8].
Turning to formyl-Thp-Leu-Phe-OMe, the chemoattractant activity result on neutrophils [9] is listed as “chemoattractant agent to human neutrophils”. Further, the “stimulation of superoxide production” value on neutrophils [10] was “did not stimulate superoxide production”.
